Data on one compound can be found in PMC4177951, “Identification and Functional Expression of a Glutamate- and Avermectin-Gated Chloride Channel from Caligus rogercresseyi, a Southern Hemisphere Sea Louse Affecting Farmed Fish” (PLoS Pathogens, 2014).

As usually defined, the EC50 is the midpoint of the concentration-response curve. Low readings indicate a more potent agent, high ones a less potent agent.

Assay [1] addresses T1, CrGluClα (Caligus rogercresseyi, UniProt A0A1W6LZ70).
T1 construct: full-length ORF (clones CrGluCl-Vald13 and CrGluCl-Vald2)
Description: two-electrode voltage clamp in Xenopus oocytes expressing the channel; agonist concentration-response. Type of assay: cell-based. (In two-electrode clamp one electrode senses voltage and the other passes current.)

In assay [2] the target is T2, CrGluClα-T318A (Caligus rogercresseyi, UniProt A0A1W6LZ70, T318A).
T2 construct: full ORF in pCR3.1, homopentamer expressed in Xenopus laevis oocytes, T318A point mutant at extracellular end of M3
As to the kind of experiment: two-electrode voltage clamp in Xenopus oocytes; concentration-response of small evoked currents (Figure 9D). In kind it is cell-based.

T1 sequence (A0A1W6LZ70 entry or part of it): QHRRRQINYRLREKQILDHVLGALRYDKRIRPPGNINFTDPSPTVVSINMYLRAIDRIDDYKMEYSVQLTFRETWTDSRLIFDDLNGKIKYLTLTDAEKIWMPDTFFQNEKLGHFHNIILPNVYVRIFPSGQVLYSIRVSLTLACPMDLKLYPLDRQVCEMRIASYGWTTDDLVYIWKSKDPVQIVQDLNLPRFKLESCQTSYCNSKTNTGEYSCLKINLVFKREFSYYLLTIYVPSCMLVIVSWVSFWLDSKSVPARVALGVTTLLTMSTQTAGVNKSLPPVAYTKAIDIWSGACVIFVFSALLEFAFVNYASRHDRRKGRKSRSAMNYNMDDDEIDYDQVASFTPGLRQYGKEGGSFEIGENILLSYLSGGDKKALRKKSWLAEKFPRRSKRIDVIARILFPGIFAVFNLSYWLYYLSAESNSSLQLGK
T2 sequence (A0A1W6LZ70 33-463 T318A): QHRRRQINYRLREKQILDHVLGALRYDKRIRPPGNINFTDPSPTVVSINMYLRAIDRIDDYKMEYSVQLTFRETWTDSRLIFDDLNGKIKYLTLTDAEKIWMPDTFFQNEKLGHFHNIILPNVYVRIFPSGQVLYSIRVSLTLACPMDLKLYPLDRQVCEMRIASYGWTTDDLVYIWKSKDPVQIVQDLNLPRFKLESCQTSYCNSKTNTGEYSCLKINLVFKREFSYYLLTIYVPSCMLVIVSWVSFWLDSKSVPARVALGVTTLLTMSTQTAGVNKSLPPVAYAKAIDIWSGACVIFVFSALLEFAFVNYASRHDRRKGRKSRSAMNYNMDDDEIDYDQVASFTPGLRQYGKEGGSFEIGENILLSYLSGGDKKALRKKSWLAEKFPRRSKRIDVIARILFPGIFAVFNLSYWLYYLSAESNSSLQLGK

Consider `N[C@@H](CCC(=O)O)C(=O)O` [L-glutamate], for which the EC50 in assay [1] was determined as 6.89 ± 0.83 µM. In addition, the “concentration-response of evoked currents” value in assay [2] was “Maximal response was reached at lower glutamate concentrations in the CrGluClα-T318A mutant channel”.
